{"source": "patent US20230144779A1", "about": "“FORMULATIONS AND METHOD FOR TREATMENT OF INFLAMMATORY DISEASES” (VYOME THERAPEUTICS INC., priority 2019, published 2023)", "origin": "cited, not measured here"}
{"smiles": "COc1c(C)c2c(c(O)c1C/C=C(\\C)CCC(=O)O)C(=O)OC2", "note": "[Mycophenolic acid (MPA), Mycophenolic acid]", "values": [{"measurement": "solubility", "value": "Practical insoluble, 63 mcg/ml. MPA as such is not available in the market, it is available as salt form Hydrophilic nature as compared to its ester prodrug"}]}
